Reference: the supplement of paper PMC10307832

Assays:
Assay in all cases: relative viability (nuclei count vs DMSO), 5 days (fraction); higher = more cells survive
[1] = compound: CC1=CC(=CC=C1)NC2=NC(=CS2)C3=CC=NC=C3
Summary of the method: (§1)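 After an overnight hold at 37 °C, lung cancer cell lines in 1536-well plates were pinned with five library-drug doses (not always all listed), each √10 from the next, on vehicle-anchored plates. The cells stayed 5 days without fresh medium, then a one-step fix, permeabilisation and Hoechst stain preceded 4× imaging and MetaXpress nuclear counts. A plate passed only with control CV under 25% and at least one doubling. Viability is the median, over plates, of treated-well nuclei relative to vehicle-well nuclei.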

Masitinib = compound: Cc1ccc(NC(=O)c2ccc(CN3CCN(C)CC3)cc2)cc1Nc1nc(-c2cccnc2)cs1 [Masitinib]
Summary of the method: as §1

[2] = compound: CC1=CC(=CC=C1)NC2=NC(=CS2)C3=CC=NC=C3 + CS(=O)(=O)N1CCN(Cc2cc3nc(-c4cccc5[nH]ncc45)nc(N4CCOCC4)c3s2)CC1 [Pictilisib] (partner 1 µM)
Summary of the method: (§2)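 For relative viability, nuclei counts in treated wells were divided by those in vehicle wells. Lung cancer cell lines had been pin-tool dosed in 1536-well plates the day after seeding and cultured for 5 days, then fixed and stained in one step (final 0.05% Triton X-100, 1% formaldehyde, 1 ug/ml Hoechst) and imaged at 4×. Doses were one drug alone or a fixed anchor-drug dose plus five library-drug doses (not always all listed) in √10 steps, and values are duplicate-plate medians.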

[3] = compound: CC1=CC(=CC=C1)NC2=NC(=CS2)C3=CC=NC=C3 + Cc1nc(NC(=O)N2CCC[C@H]2C(N)=O)sc1-c1ccnc(C(C)(C)C(F)(F)F)c1 [Alpelisib] (partner 2 µM)
Summary of the method: as §2

UMC-11
relative viability ([1]; 0.08 µM): 0.872
relative viability ([1]; 0.253 µM): 0.927
relative viability ([1]; 0.8 µM): 0.927
relative viability ([1]; 2.53 µM): 0.93
relative viability ([1]; 8 µM): 1.03
relative viability (Masitinib; 0.01 µM): 0.926
relative viability (Masitinib; 0.03162 µM): 0.969
relative viability (Masitinib; 0.1 µM): 1.09
relative viability (Masitinib; 0.3162 µM): 0.961
relative viability (Masitinib; 1 µM): 1.06
relative viability ([2]; first compound 0.08 µM): 0.757
relative viability ([2]; first compound 0.253 µM): 0.746
relative viability ([2]; first compound 0.8 µM): 0.729
relative viability ([2]; first compound 2.53 µM): 0.761
relative viability ([2]; first compound 8 µM): 0.824
relative viability ([3]; first compound 0.08 µM): 1.02
relative viability ([3]; first compound 0.253 µM): 0.91
relative viability ([3]; first compound 0.8 µM): 0.993
relative viability ([3]; first compound 2.53 µM): 0.993
relative viability ([3]; first compound 8 µM): 1.06
